Measured values published in patent publication US6796312B2, “Process and apparatus for the removal of toxic components of tobacco smoke and the standardization of the health hazards related to those components” (priority 2001, dated 2004).
“And” between values parts separate entries of the source, which are not always exact repeats. Equal entries are not always repeated. Where two headings read alike, the source gives them in different places.

Assays:
[1] = biological target: squash ascorbic acid oxidase (Cucurbita pepo var. melopepo, UniProt P37064); conditions: cited from earlier work
jack bean urease = jack bean urease (Canavalia ensiformis, UniProt P07374); conditions: cited from earlier work
turnip peroxidase = conditions: 2.7×10^−4 Molar (80 ppm); cited from earlier work
caries = conditions: hamsters in vivo; cited from earlier work
human whole saliva = conditions: low concentrations; cited from earlier work
[2] = tested on: succinic oxidase and reduced nicotinamide-adenine dinucleotide oxidase; experiment: Respiratory chain of mouse heart homogenates; type: biochemical; conditions: under certain conditions, Eichel unpublished
myeloperoxidase = biological target: T1, myeloperoxidase (Homo sapiens, UniProt P05164); experiment: NADH2-NDGA-myeloperoxidase spectrophotometric assay of sputum / oral fluid-cell harvest supernatant extracts; type: biochemical
T1 construct: Homogenates were centrifuged at 1,300×g for ten (10) minutes and the supernatant extracts were kept during the course of analysis; from tissue; host or cells: human sputum / oral fluid-cell harvest (neutrophil-rich) homogenate supernatants
T1 sequence (P05164 49-745): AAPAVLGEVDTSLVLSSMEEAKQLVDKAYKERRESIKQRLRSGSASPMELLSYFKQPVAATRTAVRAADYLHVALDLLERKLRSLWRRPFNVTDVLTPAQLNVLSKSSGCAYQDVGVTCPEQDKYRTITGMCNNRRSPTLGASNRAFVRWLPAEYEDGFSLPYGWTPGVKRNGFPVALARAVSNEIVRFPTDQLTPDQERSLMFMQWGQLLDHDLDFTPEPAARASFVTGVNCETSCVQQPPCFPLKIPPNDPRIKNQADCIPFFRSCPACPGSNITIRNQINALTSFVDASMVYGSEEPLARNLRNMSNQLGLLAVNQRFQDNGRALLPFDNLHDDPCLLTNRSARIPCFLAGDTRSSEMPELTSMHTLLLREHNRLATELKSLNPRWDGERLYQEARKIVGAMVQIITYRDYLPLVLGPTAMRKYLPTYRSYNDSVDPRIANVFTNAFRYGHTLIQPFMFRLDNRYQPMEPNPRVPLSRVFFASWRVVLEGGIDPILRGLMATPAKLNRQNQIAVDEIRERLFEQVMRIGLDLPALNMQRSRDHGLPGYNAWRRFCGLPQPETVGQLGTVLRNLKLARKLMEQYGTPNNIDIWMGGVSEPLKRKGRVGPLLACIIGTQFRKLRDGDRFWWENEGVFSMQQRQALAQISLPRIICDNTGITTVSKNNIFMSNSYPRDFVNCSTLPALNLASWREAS
Procedure: Aliquots of fresh human oral fluid-cell harvests as exemplified above or fresh human sputum collected by the donors over a twenty-four (24) hour period were disrupted employing either Ten Broeck glass homogenizers or the Virtis homogenizer. Homogenates were centrifuged at 1,300×g for ten (10) minutes and the supernatant extracts were kept during the course of analysis at zero degrees centigrade (0° C.). Other reactants were incubated at thirty-five degrees centigrade (35° C.). Reduced nicotinamide-adenine dinucleotide oxidase and norhydroguaiaretic acid-myeloperoxidase activities were followed at 340 mμ or (nm) employing the Beckman Model DU Spectrophotometer temperature regulated at thirty-five degrees centigrade (35° C.). All specific reactions were run as duplicate assays.
Although this oxidation was very small under the conditions of experiment, an interaction correction factor was determined and applied to all reduced nicotinamide-adenine dinucleotide-nordihydroguaiaretic acid-mycloperoxidase assay reactions.
The velocity constants for the myeloperoxidase reactions behaved and were computed in accord with zero order reaction kinetics. […] In most instances, the activities followed first order reaction kinetics for a short interval and then ceased abruptly. The latter may be due to the presence or accumulation of variable concentrations of an unidentified inhibitor or inhibitors in the supernatants. Since in all cases the oxidase activities were very slow relative to the myeloperoxidase activities, the difference in optical density over the course of the reactions (up to ten (10) minutes) for the oxidase system were computed in the same manner as the data for the rapid myeloperoxidase system. Thus, all velocity constants were expressed in μ Moles of reduced nicotinamide-adenine dinucleotide oxidized per minute per ml. of oral fluid-cell harvest or sputum. The small oxidase activities were applied as a correction factor in the computation of all myeloperoxidase velocity constants.
The pH optimum of the myeloperoxidase system was determined. When fresh nordihydroguaiaretic acid solutions were prepared and interaction rates with reduced nicotinamide-adenine dinucleotide were subtracted as controls from oral lavage and sputum supernatant myeloperoxidase activities, the net velocity constants were zero (0). On the other hand, five (5) hour old nordihydroguaiaretic acid solutions yielded optimal activities at approximately pH 7.4. Subsequent experiments uniformly were carried out at pH 7.0 using five (5) hour old solutions to minimize the rates of the auto oxidation of nordihydroguaiaretic acid and oxidation of reduced nicotinamide-adenine dinucleotide by nordihydroguaiaretic acid when employing alkaline pH's.

rat liver cyclophorase = conditions: 2.7×10^−3 Molar (160 ppm); listed as nordihydroguaiaretic acid; cited from earlier work
[3] = tested on: Ehrlich carcinoma, Li210 mouse leukemia and other cancer cells; conditions: in vivo and in vitro; cited from earlier work
[4] = biological target: T2, pig heart D-amino acid oxidase (Sus scrofa, UniProt P00371); conditions: 2.7×10^−3 Molar (160 ppm); cited from earlier work
T2 construct: host or cells: pig heart (so in the source)

[5] = biological target: T3, yeast alcohol dehydrogenase (Saccharomyces cerevisiae, UniProt P00330); conditions: 2.7×10^−4 Molar (80 ppm); cited from earlier work
T3 sequence (P00330 1-348): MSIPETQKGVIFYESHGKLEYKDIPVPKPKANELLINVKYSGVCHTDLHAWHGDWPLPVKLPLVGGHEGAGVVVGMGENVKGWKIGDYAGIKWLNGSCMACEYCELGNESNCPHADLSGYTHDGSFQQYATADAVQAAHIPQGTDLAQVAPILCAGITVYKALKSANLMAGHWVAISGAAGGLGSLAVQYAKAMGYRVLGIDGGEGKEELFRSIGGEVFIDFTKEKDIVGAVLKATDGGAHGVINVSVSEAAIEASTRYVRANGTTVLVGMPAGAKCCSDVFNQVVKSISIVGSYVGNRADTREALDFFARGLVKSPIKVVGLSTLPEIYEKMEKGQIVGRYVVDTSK

plant lipoxidase = conditions: cited from earlier work
[6] = cited from earlier work

Chain of jack bean urease (P07374 whole entry, looked up): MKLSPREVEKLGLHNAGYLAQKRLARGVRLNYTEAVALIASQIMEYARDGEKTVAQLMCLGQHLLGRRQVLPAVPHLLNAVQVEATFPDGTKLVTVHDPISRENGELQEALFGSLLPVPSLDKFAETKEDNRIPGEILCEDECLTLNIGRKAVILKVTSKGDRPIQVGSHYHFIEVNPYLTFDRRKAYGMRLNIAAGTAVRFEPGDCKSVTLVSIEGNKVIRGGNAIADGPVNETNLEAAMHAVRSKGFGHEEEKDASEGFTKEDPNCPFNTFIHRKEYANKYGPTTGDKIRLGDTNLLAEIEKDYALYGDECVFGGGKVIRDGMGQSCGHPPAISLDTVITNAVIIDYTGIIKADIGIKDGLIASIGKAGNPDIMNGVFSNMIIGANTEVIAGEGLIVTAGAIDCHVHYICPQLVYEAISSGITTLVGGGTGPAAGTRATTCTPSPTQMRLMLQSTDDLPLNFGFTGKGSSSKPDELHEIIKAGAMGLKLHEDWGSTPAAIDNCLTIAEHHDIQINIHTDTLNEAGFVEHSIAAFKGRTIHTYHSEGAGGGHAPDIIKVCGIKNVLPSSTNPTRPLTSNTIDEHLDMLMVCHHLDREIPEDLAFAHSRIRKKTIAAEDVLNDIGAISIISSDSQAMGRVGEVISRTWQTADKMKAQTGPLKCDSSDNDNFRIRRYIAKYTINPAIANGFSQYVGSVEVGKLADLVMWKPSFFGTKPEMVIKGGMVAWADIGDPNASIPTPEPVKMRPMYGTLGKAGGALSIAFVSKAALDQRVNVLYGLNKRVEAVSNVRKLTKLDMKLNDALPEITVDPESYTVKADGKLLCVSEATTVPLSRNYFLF
Chain of squash ascorbic acid oxidase (P37064 whole entry): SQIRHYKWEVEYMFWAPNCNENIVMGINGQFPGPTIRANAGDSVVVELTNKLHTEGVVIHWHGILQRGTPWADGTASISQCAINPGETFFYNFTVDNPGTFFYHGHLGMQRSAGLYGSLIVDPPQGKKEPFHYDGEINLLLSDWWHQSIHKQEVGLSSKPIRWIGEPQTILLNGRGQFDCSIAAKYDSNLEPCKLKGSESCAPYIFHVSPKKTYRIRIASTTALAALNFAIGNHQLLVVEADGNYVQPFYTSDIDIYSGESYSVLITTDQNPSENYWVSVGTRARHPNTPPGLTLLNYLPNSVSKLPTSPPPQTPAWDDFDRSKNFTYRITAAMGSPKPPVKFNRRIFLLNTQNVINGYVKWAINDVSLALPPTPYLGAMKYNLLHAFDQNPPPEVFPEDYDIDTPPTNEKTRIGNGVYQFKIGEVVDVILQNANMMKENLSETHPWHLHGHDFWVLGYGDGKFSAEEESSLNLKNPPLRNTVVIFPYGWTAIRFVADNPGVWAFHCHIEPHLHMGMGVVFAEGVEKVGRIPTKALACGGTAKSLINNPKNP
T2 sequence (P00371 whole entry): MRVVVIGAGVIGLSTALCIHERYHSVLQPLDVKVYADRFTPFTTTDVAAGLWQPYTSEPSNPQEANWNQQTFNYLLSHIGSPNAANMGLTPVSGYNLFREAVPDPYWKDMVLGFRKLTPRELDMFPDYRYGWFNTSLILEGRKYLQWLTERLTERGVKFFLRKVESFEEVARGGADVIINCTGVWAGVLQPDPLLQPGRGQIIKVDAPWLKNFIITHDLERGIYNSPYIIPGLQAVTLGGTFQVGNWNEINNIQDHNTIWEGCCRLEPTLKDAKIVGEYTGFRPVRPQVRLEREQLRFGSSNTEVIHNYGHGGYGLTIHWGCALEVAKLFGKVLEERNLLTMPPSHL

Question: With `CC(Cc1ccc(O)c(O)c1)C(C)Cc1ccc(O)c(O)c1` (stereo not drawn) [NDGA, beta, gamma-dimethyl-alpha, ortho-bis (3,4 dihydroxiphenyl) butane] as the molecule, how does the “inhibition of squash ascorbic acid oxidase” value [1] read?
Answer: The value was 100%.

Question: And the “inhibition of jack bean urease” value (jack bean urease)?
Answer: The value was 99%.

Question: And the “inhibition of turnip peroxidase” value (turnip peroxidase)?
Answer: Its value is 71%.

Question: What about the anti-caries effect (caries) of the same molecule?
Answer: Its anti-caries effect is “effective experimental anti-caries agent”.

Question: What about the “inhibition of aerobic and anaerobic glycolysis” value (human whole saliva) of the same molecule?
Answer: The value was “markedly inhibited”.

Question: And the “inhibition of endogenous and glucose dependent respiration” value (human whole saliva)?
Answer: Its value is “nearly as effectively inhibited”.

Question: And the “inhibition of the respiratory chain (succinic oxidase, reduced nicotinamide-adenine dinucleotide oxidase)” value [2]?
Answer: Its value is “effective inhibitor”.

Question: What about the NADH2-NDGA-MPO velocity constant (myeloperoxidase; NDGA solution aged 0 minutes) of the same molecule?
Answer: Its NADH2-NDGA-MPO velocity constant is 0.00 μ Moles NADH2 oxidized per minute per ml. of sputum supernatant.

Question: And the NADH2-NDGA-MPO velocity constant (myeloperoxidase; NDGA solution aged 60 minutes)?
Answer: Its NADH2-NDGA-MPO velocity constant is 8.97 μ Moles NADH2 oxidized per minute per ml. of sputum supernatant.

Question: What about the NADH2-NDGA-MPO velocity constant (myeloperoxidase; NDGA solution aged 120 minutes) of the same molecule?
Answer: Its NADH2-NDGA-MPO velocity constant is 14.43 μ Moles NADH2 oxidized per minute per ml. of sputum supernatant.

Question: What about the NADH2-NDGA-MPO velocity constant (myeloperoxidase; NDGA solution aged 180 minutes) of the same molecule?
Answer: The NADH2-NDGA-MPO velocity constant was 27.65 μ Moles NADH2 oxidized per minute per ml. of sputum supernatant.

Question: What about the NADH2-NDGA-MPO velocity constant (myeloperoxidase; NDGA solution aged 240 minutes) of the same molecule?
Answer: The NADH2-NDGA-MPO velocity constant was 28.89 μ Moles NADH2 oxidized per minute per ml. of sputum supernatant.

Question: What about the NADH2-NDGA-MPO velocity constant (myeloperoxidase; NDGA solution aged 337 minutes) of the same molecule?
Answer: The NADH2-NDGA-MPO velocity constant was 32.40 μ Moles NADH2 oxidized per minute per ml. of sputum supernatant.

Question: What about the NADH2-NDGA-MPO velocity constant (myeloperoxidase; NDGA solution aged 397 minutes) of the same molecule?
Answer: Its NADH2-NDGA-MPO velocity constant is 41.39 μ Moles NADH2 oxidized per minute per ml. of sputum supernatant.

Question: And the NADH2-NDGA-MPO velocity constant (myeloperoxidase; NDGA solution aged 440 minutes)?
Answer: Its NADH2-NDGA-MPO velocity constant is 44.21 μ Moles NADH2 oxidized per minute per ml. of sputum supernatant.

Question: And the NADH2-NDGA-MPO velocity constant (myeloperoxidase; NDGA solution aged 485 minutes)?
Answer: Its NADH2-NDGA-MPO velocity constant is 46.85 μ Moles NADH2 oxidized per minute per ml. of sputum supernatant.

Question: What about the “inhibition of rat liver cyclophorase” value (rat liver cyclophorase) of the same molecule?
Answer: Its value is 93% and 70%.

Question: And the “inhibition of the same metabolic activities in cancer cells” value [3]?
Answer: The value was “similarly inhibited”.

Question: What about the “inhibition of pig heart D-amino acid oxidase” value [4] of the same molecule?
Answer: Its value is 99%.

Question: And the “inhibition of yeast alcohol dehydrogenase” value [5]?
Answer: The value was 71%.

Question: And the “inhibition of plant lipoxidase-catalyzed oxidation and auto-oxidation of linoleate” value (plant lipoxidase)?
Answer: The value was “well-known inhibitor”.

Question: What about the solubility ([6]; dilute hydrochloric acid) of the same molecule?
Answer: The solubility was “insoluble”.

Question: And the solubility ([6]; ethanol, methanol, ether, acetone, glycerol, propylene glycol, dilute alkali)?
Answer: The solubility was “soluble”.

Question: And the solubility ([6]; hot water and chloroform)?
Answer: The solubility was “slightly soluble”.
